Patent US10254273B2, “Method and kit for assessment of sodium channel-related anti- or pro-arrhythmic potential of compounds” (RUPRECHT-KARLS-UNIVERSITAET HEIDELBERG, priority 2014, dated 2019)

Target: T1, cardiac sodium channels Nav1.5 in the intercalated discs of cardiomyocytes (Mus musculus, UniProt Q9JJV9)
T1 construct: The heart was harvested and perfused in the Langendorff system; endogenous in cells; host or cells: primary adult mouse cardiomyocytes isolated from heart by Langendorff perfusion
T1 sequence (Q9JJV9 whole entry, the tested form may be a part): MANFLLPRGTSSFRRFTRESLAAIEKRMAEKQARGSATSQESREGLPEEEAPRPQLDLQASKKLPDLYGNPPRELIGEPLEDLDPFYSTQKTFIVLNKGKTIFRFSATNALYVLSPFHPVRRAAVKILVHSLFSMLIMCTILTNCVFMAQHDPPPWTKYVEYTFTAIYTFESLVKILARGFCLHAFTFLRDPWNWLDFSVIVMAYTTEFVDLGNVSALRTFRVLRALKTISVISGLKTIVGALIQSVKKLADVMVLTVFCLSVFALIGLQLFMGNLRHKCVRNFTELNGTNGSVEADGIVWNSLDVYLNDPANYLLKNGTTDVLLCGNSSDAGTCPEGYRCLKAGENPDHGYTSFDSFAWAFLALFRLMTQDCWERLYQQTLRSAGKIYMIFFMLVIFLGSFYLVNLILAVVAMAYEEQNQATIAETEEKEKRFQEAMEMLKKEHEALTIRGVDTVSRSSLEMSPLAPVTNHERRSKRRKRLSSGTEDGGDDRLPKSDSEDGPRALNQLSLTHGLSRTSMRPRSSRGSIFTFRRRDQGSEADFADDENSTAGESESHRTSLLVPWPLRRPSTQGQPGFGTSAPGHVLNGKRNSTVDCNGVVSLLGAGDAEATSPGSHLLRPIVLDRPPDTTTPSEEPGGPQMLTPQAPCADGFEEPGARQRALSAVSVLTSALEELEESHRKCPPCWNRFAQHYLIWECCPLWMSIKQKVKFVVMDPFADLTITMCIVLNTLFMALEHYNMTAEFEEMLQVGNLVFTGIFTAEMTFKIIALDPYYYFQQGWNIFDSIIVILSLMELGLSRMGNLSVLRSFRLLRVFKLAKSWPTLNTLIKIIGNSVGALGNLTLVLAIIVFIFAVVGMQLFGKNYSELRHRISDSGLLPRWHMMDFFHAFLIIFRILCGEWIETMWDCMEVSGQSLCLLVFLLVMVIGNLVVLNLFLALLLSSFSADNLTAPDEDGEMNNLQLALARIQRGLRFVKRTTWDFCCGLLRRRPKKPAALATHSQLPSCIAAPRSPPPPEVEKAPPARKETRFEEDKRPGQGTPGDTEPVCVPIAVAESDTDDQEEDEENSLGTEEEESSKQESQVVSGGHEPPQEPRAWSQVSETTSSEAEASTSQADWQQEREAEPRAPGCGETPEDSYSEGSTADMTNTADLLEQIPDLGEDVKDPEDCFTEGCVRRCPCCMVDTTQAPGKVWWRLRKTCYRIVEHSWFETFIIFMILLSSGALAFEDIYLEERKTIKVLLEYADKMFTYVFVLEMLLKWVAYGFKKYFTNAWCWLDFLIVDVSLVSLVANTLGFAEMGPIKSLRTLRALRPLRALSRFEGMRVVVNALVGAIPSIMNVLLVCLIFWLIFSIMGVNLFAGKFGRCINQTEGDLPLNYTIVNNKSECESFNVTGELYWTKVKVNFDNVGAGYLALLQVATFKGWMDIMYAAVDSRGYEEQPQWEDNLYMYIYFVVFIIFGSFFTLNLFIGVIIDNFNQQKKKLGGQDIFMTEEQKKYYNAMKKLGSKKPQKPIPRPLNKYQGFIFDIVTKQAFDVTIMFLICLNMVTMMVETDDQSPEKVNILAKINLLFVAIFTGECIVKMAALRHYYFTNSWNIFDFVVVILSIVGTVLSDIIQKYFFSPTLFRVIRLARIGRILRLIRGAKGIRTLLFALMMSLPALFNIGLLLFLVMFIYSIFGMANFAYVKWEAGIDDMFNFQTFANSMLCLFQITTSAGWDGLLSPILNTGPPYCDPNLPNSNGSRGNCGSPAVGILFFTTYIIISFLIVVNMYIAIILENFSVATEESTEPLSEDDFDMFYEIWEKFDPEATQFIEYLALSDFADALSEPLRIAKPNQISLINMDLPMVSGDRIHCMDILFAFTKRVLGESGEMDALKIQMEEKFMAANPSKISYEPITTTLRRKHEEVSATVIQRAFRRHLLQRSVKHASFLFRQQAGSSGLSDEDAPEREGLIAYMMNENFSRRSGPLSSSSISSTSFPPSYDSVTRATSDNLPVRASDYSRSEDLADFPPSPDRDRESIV
Assay: Nav1.5 density change in intercalated discs of cardiomyocytes (immunocytochemistry, confocal microscopy)
Assay type: cell-based
Details: test compound at a concentration of 100 μM or higher vs. untreated sample, p<0.05
Description: Briefly, the mice were injected with 200 IU heparin i.p. prior to sacrifice. The thoracic chamber was opened and a cannula with perfusion solution was inserted from the atria. The heart was harvested and perfused in the Langendorff system with Perfusion Buffer at 37° C. for 5 min, followed by Digestion Buffer until the heart muscle was pale and some signs of extracellular matrix dissociation appeared. The heart was perfused for additional 5 min with Perfusion Buffer to stop the dissociation. The cardiomyocytes were mechanically dissociated in TB-A and then plated on ECM-coated (Sigma cat. no. E-1270) petri dish (Zell-Kontakt cat. no. 5160-30). […]
Confocal images of red and green immunofluorescence of stained cardiomyocytes were acquired, e.g. on a Leica confocal laser scanning unit TCS NT, which is coupled to a Leica DM IRB microscope. […] Fluorescence signals of Nav1.5 staining were recorded at 20%, 50% and 80% laser intensity, and fluorescence signals of cadherin was recorded at 80% laser intensity to generate the Region of Interest (ROI) (modified from Yampolsky et al., 2010, a). All images were digitally saved and later processed with Image) (NIH, Bethesda, Md., USA) software using proprietary quantification methods and standard Image) plug-ins.
ROI were set as defined by the fluorescence signals of the cadherin staining, which represented the intercalated discs. […]

**Q.** How did the “change of the Nav1.5 density in comparison to the untreated sample” value turn out when O=C(NCC1CCCCN1)c1cc(OCC(F)(F)F)ccc1OCC(F)(F)F (stereo not shown) [flecainide] was run?
**A.** significant change
